Results published in US20100144891A1, “USE OF CYCLOHEXANEHEXOL DERIVATIVES IN THE TREATMENT OF AMYOTROPHIC LATERAL SCLEROSIS” (priority 2007, published 2010).
Entries after “also recorded” stand apart in the source; their conditions may differ.

Experiments:
[1] = system: folate-resistant mouse neural tube defects; settings: compared with myo-inositol; cited from earlier work
[2] = system: cytidine monophosphorylphosphatidate; settings: cited from earlier work
SOD1 G93V protein [3] = target: T1, SOD1 G93V protein (Homo sapiens, UniProt P00441, G94V); experiment: Trifluoroethanol (TFE)-induced SOD1 aggregation, thioflavin T (ThT) fluorescence; type: biochemical; settings: SOD1:scyllo-inositol ratio 1:1, 1:10, 1:20 vs untreated
T1 sequence (P00441 whole entry G94V): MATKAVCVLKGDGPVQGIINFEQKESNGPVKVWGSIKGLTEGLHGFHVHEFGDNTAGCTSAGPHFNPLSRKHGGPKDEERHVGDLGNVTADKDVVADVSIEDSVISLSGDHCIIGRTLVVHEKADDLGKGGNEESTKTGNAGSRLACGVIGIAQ
Text: (§1) FIG. 1. Aggregation of SOD1 […] protein in the presence and absence of scyllo-inositol. […] Untreated (blue), SOD1:scyllo-inositol ratio of 1:1 (blue), 1:10 (pink) and 1:20(yellow). […] Inositol related compounds were screened in aggregation assays of apo-SOD1 and the following SOD1 mutants, […] and […]. The […] mutant was chosen for its fast aggregation kinetics, while the […] is intermediary between […] and the slow kinetics of apo-SOD1 (Stathopulos, P. B., et al. (2006) J. Biol. Chem. 281, 6184-6193). Using trifluoroethanol (TFE)-induced aggregation, all three SOD1 proteins aggregate maximally within a 2 hour window (Stathopulos P B, et al. (2003) Proc Natl Acad Soc USA. 100:7021-7026). […] The results were confirmed using a bis-ANS assay that determines the exposure of hydrophobic faces on proteins, as aggregation occurs dye binding to SOD1 should increase ([…], Cunningham P, et al (2002) J Biol. Chem. 277:47551-46556). In the presence of scyllo-inositol, the bis-ANS signal was lower than when protein was incubated alone.

[4] = target: Apo-wild type SOD1 protein (Homo sapiens, UniProt P00441); experiment: Trifluoroethanol-induced aggregation of Apo-wild type SOD1, thioflavin T signal; type: biochemical; settings: SOD1:scyllo-inositol 1:20, 15 minute incubation
Sequence of Apo-wild type SOD1 protein (P00441 whole entry): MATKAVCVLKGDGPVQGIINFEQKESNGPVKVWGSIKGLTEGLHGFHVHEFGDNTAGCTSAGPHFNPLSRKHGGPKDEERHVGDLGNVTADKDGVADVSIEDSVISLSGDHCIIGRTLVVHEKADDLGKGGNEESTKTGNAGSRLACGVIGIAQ
Experimental: FIG. 3. ApoSOD aggregation-Trifluoroethanol-induced aggregation of Apo-wild type SOD1 protein in the presence and absence of scyllo-inositol after a 15 minute incubation. The thioflavin T signal increases in the presence of scyllo-inositol. Untreated (blue) and SOD1:scyllo-inositol ratio of 1:20(yellow). Inositol related compounds were screened in aggregation assays of apo-SOD1 and the following SOD1 mutants, […] and […]. The […] mutant was chosen for its fast aggregation kinetics, while the […] is intermediary between […] and the slow kinetics of apo-SOD1 (Stathopulos, P. B., et al. (2006) J. Biol. Chem. 281, 6184-6193). Using trifluoroethanol (TFE)-induced aggregation, all three SOD1 proteins aggregate maximally within a 2 hour window (Stathopulos P B, et al. (2003) Proc Natl Acad Soc USA. 100:7021-7026). […] The results were confirmed using a bis-ANS assay that determines the exposure of hydrophobic faces on proteins, as aggregation occurs dye binding to SOD1 should increase ([…], Cunningham P, et al (2002) J Biol. Chem. 277:47551-46556). In the presence of scyllo-inositol, the bis-ANS signal was lower than when protein was incubated alone.

SOD1 G93V protein [5] = target: T1, SOD1 G93V protein; experiment: bis-ANS assay (exposure of hydrophobic faces on SOD1); type: biochemical; settings: in the presence of scyllo-inositol vs protein incubated alone
Text: as §1

Tg SOD1 G37R mice [6] = experiment: Foot print analyses of gait in ALS mouse model; type: in vivo
Experimental: (§2) FIG. 2. Motor function of TgSOD1 G37R mice treated or untreated with scyllo-inositol was evaluated using the Rotarod and footprint analyses of gait. […] Stride length 37±2 mm for treated and 18±2 mm for untreated mice (p<0.001). […] Mice were untreated (n=5) or treated with scyllo-inositol (n=5) in drinking water ad libitum from 6.5 months of age and are ongoing at 12 months. Starting at 7.5 months of age, mice underwent weekly evaluation of motor function using the Rotarod test. Mice were given three consecutive trials and the mean time to fall was calculated. […] At 12 months of age, two treated mice were still remaining on the rotarod for >50 sec; untreated mice lost this ability at 11 months of age. […] Scyllo-inositol treatment maintained gait with treated 37±2 versus 18±2 mm stride length in Tg mice (p<0.001).

apoSOD1 and mutant SOD1 = experiment: Time course study of ThT signal (kinetics of assembly of SOD1 aggregates); type: biochemical; settings: in the presence of scyllo-inositol
Experimental: Inositol related compounds were screened in aggregation assays of apo-SOD1 and the following SOD1 mutants, […] and […]. The […] mutant was chosen for its fast aggregation kinetics, while the […] is intermediary between […] and the slow kinetics of apo-SOD1 (Stathopulos, P. B., et al. (2006) J. Biol. Chem. 281, 6184-6193). Using trifluoroethanol (TFE)-induced aggregation, all three SOD1 proteins aggregate maximally within a 2 hour window (Stathopulos P B, et al. (2003) Proc Natl Acad Soc USA. 100:7021-7026). […] The results were confirmed using a bis-ANS assay that determines the exposure of hydrophobic faces on proteins, as aggregation occurs dye binding to SOD1 should increase ([…], Cunningham P, et al (2002) J Biol. Chem. 277:47551-46556). In the presence of scyllo-inositol, the bis-ANS signal was lower than when protein was incubated alone.

Tg SOD1 G37R mice [7] = experiment: Rotarod test of motor function in ALS mouse model; type: in vivo
Experimental: as §2

apo-SOD1 G93S protein = apo-SOD1 G93S protein (Homo sapiens, UniProt P00441, G94S); experiment: Trifluoroethanol-induced aggregation of apo-SOD1 G93S, thioflavin T signal; type: biochemical; settings: SOD1:scyllo-inositol 1:20, as a function of time
Sequence of apo-SOD1 G93S protein (P00441 whole entry G94S): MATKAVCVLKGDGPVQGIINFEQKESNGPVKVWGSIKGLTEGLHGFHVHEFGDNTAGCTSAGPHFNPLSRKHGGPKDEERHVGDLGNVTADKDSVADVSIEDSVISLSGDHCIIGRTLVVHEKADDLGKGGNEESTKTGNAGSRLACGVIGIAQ
Text: FIG. 4. ApoSOD1 G93S mutant aggregation—Trifluoroethanol-induced aggregation of apo-SOD1 G93S protein in the presence and absence of scyllo-inositol as a function of time. […] Untreated (blue) and SOD1:scyllo-inositol ratio of 1:20(yellow).
Inositol related compounds were screened in aggregation assays of apo-SOD1 and the following SOD1 mutants, G93V and G93S. The G93V mutant was chosen for its fast aggregation kinetics, while the G93S is intermediary between G93V and the slow kinetics of apo-SOD1 (Stathopulos, P. B., et al. (2006) J. Biol. Chem. 281, 6184-6193). Using trifluoroethanol (TFE)-induced aggregation, all three SOD1 proteins aggregate maximally within a 2 hour window (Stathopulos P B, et al. (2003) Proc Natl Acad Soc USA. 100:7021-7026). […] The results were confirmed using a bis-ANS assay that determines the exposure of hydrophobic faces on proteins, as aggregation occurs dye binding to SOD1 should increase (Rakhit R, Cunningham P, et al (2002) J Biol. Chem. 277:47551-46556). In the presence of scyllo-inositol, the bis-ANS signal was lower than when protein was incubated alone.

SOD1G93A = experiment: Negative stain electron microscopy of SOD1 aggregates/fibres; type: biochemical; settings: vs control samples / SOD1 incubated alone

OC1C(O)C(O)C(O)C(O)C1O [D-chiro-inositol]
prevention of folate-resistant neural tube defects [1]: more effective than myo-inositol

OC1C(O)C(O)C(O)C(O)C1O (stereo not drawn) [Epi-inositol, epi-inositol]
reversing lithium effects on cytidine monophosphorylphosphatidate [2]: effective

O[C@H]1[C@H](O)[C@@H](O)[C@H](O)[C@@H](O)[C@@H]1O [scyllo-inositol]
Thioflavin T (ThT) fluorescence signal (SOD1 G93V protein [3]): increased; also recorded: increases in a scyllo-inositol concentration dependent manner | Thioflavin T signal / trifluoroethanol-induced aggregation [4]: increases | bis-ANS signal (SOD1 G93V protein [5]): lower; also recorded: decreases | stride length (Tg SOD1 G37R mice [6]; treated Tg SOD1 G37R mice, untreated 18±2 mm, p<0.001): 37±2 mm | gait (foot print analyses) (Tg SOD1 G37R mice [6]; treated versus untreated Tg mice): maintained | kinetics of assembly of SOD1 aggregates (apoSOD1 and mutant SOD1): greatly reduced; also recorded: most effective compound | onset of disease (Tg SOD1 G37R mice [7]; Tg SOD1 G37R mice, scyllo-inositol in drinking water ad libitum from 6.5 months of age, untreated 10.1±0.06): 10.6±0.22 months | time remaining on the rotarod (Tg SOD1 G37R mice [7]; at 12 months of age, two treated mice, untreated mice lost this ability at 11 months): > 50 s | motor function on the rotarod (latency to fall) (Tg SOD1 G37R mice [7]; treated vs untreated Tg SOD1 G37R mice, p=0.029): improvement; also recorded: significantly better | Thioflavin T signal / trifluoroethanol-induced aggregation (apo-SOD1 G93S protein): increased; also recorded: increases in the presence of scyllo-inositol to a greater extent than in apo-SOD1 G93S protein alone | number of SOD1 aggregates/fibres (negative stain electron microscopy) (SOD1G93A): decreased; also recorded: no fibres were detected
